Reference: patent publication US20140135327A1, “N- (2 -AMINOPHENYL) BENZAMIDE DERIVATIVES AS HISTONE DEACETYLASE INHIBITORS” (CANCER RESEARCH TECHNOLOGY LIMITED, priority 2011, published 2014)

Assays:
[1] = target: HDAC 3 (Homo sapiens, UniProt O15379); test: Caliper HDAC inhibitor profiling assay (microfluidic mobility-shift), HDAC 3; assay type: biochemical; conditions: 1 hour at room temperature, read-out: IC50 (μM) HDAC3
Method: (§1) The activity of the compounds of the invention against HDAC 3 (Class I) and HDAC 6 (Class II) can be determined using the Caliper Life Sciences HDAC inhibitor profiling assay, which utilises microfluidic mobility-shift detection.
(§2) Reaction buffer: 25 mM Tris/Cl, pH 8.0, 137 mM NaCl, 2.7 mM KCl, 1 mM MgCl2, 0.1 mg/ml BSA (fatty acid free).
(§3) Stop Buffer: 100 mM HEPES, pH 7.5, 10 mM EDTA, 0.04% Brij-35, 0.25% CR-3, and 2.5 μM Trichostatin A.
(§4) Stopped reactions were assembled in microtiter plate wells by adding 1 μL of the inhibitor compound in DMSO, 15 μL 2× Enzyme, and 15 μL 2× peptide. The reactions were incubated for 1 hour at room temperature, stopped with the addition of 45 μL Stop Solution, and read on the LabChip EZ Reader®. The curves were fit with sigmoidal dose response algorithm using GraphPad Prism.

[2] = target: T1, HDAC 6 (Homo sapiens, UniProt Q9UBN7); test: Caliper HDAC inhibitor profiling assay (microfluidic mobility-shift), HDAC 6; assay type: biochemical; conditions: 1 hour at room temperature, read-out: IC50 (μM) HDAC6
T1 sequence (Q9UBN7 1-1215): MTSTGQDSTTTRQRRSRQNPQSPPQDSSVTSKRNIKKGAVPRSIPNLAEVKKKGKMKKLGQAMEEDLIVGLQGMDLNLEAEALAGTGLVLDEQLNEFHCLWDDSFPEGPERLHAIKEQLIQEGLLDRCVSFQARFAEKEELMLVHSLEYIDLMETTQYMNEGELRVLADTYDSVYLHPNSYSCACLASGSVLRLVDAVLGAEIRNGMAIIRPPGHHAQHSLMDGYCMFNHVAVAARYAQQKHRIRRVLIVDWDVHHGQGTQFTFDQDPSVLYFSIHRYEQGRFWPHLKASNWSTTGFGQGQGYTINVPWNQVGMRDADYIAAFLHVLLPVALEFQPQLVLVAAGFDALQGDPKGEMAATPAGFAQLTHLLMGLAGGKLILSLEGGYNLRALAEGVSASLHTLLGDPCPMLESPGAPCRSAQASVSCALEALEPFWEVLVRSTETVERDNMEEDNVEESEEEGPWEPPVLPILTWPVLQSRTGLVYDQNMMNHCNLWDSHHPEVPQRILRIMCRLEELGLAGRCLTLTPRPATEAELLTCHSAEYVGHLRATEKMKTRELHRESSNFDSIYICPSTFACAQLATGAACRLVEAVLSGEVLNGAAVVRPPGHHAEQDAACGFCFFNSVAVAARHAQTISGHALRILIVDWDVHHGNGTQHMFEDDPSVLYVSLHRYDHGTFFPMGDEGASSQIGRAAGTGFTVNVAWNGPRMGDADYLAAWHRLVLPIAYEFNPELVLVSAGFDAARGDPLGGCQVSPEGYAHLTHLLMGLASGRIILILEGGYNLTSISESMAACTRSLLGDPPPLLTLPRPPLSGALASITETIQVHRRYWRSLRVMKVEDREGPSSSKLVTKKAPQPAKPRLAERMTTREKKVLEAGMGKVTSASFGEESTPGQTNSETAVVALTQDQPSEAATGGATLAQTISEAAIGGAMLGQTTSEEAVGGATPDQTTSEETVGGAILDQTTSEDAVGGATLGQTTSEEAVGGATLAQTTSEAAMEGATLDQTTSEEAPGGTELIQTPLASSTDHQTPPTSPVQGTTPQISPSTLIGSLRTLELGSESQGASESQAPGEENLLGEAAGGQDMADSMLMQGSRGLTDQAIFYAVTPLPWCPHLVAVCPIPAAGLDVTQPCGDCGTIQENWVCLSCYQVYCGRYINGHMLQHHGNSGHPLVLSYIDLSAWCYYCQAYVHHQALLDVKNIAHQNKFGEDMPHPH
Method: as §1, §2, §3, §4

Sequence of HDAC 3 (O15379 whole entry, species assumed): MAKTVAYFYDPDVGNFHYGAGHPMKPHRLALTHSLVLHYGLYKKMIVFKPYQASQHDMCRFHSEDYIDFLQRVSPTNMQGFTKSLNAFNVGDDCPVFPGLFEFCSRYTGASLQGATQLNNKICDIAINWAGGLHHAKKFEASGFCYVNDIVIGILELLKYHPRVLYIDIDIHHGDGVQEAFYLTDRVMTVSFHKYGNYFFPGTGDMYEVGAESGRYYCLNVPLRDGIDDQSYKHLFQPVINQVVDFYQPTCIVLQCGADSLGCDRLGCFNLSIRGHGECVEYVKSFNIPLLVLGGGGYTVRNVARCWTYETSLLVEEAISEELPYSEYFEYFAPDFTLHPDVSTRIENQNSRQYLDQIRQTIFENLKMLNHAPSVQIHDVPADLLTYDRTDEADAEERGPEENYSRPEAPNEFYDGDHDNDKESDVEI
Sequence of HDAC 3 (Q9Y618 395-489 partner limits assumed, species assumed): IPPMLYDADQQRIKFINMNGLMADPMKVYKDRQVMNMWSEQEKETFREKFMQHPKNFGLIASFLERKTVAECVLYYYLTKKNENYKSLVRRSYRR

SMILES	IC50 [1]	IC50 [2]	melting point
C=C1CN(Cc2ccc(C(=O)Nc3ccccc3N)cc2)C(CC(=O)NCCO)c2ccccc21 (stereo not drawn) [Example 10, N-(2-Aminophenyl)-4-{[1-{2-[(2-hydroxyethyl)amino]-2-oxoethyl}-4-methylene-3,4-dihydroisoquinolin-2(1H)-yl]methyl}-benzamide]	0.67 µM	> 10 µM	–
C=C1CN(Cc2ccc(C(=O)Nc3ccccc3N)cc2)C(CC(=O)Nc2ccccc2N)c2ccccc21 (stereo not drawn) [Example 8, N-(2-Aminophenyl)-4-{[1-{2-[(2-aminophenyl)amino]-2-oxoethyl}-4-methylene-3,4-dihydroisoquinolin-2(1H)-yl]methyl}benzamide]	0.35 µM	> 10 µM	135 to 137 °C
C=C1CN(Cc2ccc(C(=O)Nc3ccccc3N)cc2)C(CC(=O)OC)c2ccccc21 (stereo not drawn) [Example 3, Methyl [2-(4-{[(2-aminophenyl)amino]carbonyl}benzyl)-4-methylene-1,2,3,4-tetrahydroisoquinolin-1-yl]acetate]	0.98 µM	> 10 µM	151 to 153 °C
C=C1CN(Cc2ccc(C(=O)Nc3ccccc3N)cc2)C(CC(=O)N2CCOCC2)c2ccccc21 (stereo not drawn) [Example 4]	0.26 µM	> 10 µM	99 to 101 °C
C=C1CN(Cc2ccc(C(=O)Nc3ccccc3N)cc2)C(CC(=O)OCC)c2ccccc21 (stereo not drawn) [Example 1, Ethyl [2-(4-{[(2-aminophenyl)amino]carbonyl}benzyl)-4-methylene-1,2,3,4-tetrahydroisoquinolin-1-yl]acetate]	0.89 µM	> 10 µM	111 to 113 °C
C=C1CN(Cc2ccc(C(=O)Nc3ccccc3N)cc2)C(CC#N)c2ccccc21 (stereo not drawn) [Example 6, N-(2-Aminophenyl)-4-{[1-(cyanomethyl)-4-methylene-3,4-dihydroisoquinolin-2(1H)-yl]methyl}benzamide]	0.31 µM	> 10 µM	93 to 95 °C
C=C1CN(S(=O)(=O)c2ccc(C(=O)Nc3ccccc3N)cc2)C(CC#N)c2ccccc21 (stereo not drawn) [Example 15]	1.4 µM	> 10 µM	213 to 215 °C
C=C1CN(Cc2ccc(C(=O)Nc3ccccc3N)cc2)C(CC(=O)N2CCN(C)CC2)c2ccccc21 (stereo not drawn) [Example 11, N-(2-Aminophenyl)-4-{[4-methylene-1-[2-(4-methylpiperazin-1-yl)-2-oxoethyl]-3,4-dihydroisoquinolin-2(1H)-yl]methyl}benzamide]	0.56 µM	> 10 µM	–
C=C1CN(Cc2ccc(C(=O)Nc3ccccc3N)cc2)C(=O)c2ccc(C(=O)OC)cc21 [Example 13, Methyl 2-(4-{[(2-aminophenyl)amino]carbonyl}benzyl)-4-methylene-1-oxo-1,2,3,4-tetrahydroisoquinoline-6-carboxylate]	0.27 µM	> 10 µM	196 to 198 °C
C=C1CN(Cc2ccc(C(=O)Nc3ccccc3N)cc2)C(CC(=O)c2ccccc2)c2ccccc21 (stereo not drawn) [Example 5, N-(2-Aminophenyl)-4-{[4-methylene-1-(2-oxo-2-phenylethyl)-3,4-dihydroisoquinolin-2(1H)-yl]methyl}benzamide]	2.7 µM	> 10 µM	–
C=C1CN(Cc2ccc(C(=O)Nc3ccccc3N)cc2)C(=O)c2ccc(C(=O)NCCN)cc21 [Example 14, N-(2-Aminoethyl)-2-(4-{[(2-aminophenyl)amino]carbonyl}benzyl)-4-methylene-1-oxo-1,2,3,4-tetrahydroisoquinoline-6-carboxamide]	0.23 µM	> 10 µM	172 to 174 °C (dec.)
C=C1CN(Cc2ccc(C(=O)Nc3ccccc3N)cc2)C(CC(=O)N2CCCCC2)c2ccccc21 (stereo not drawn) [Example 2, N-(2-Aminophenyl)-4-{[4-methylene-1-(2-oxo-2-piperidin-1-ylethyl)-3,4-dihydroisoquinolin-2(1H)-yl]methyl}benzamide]	0.51 µM	> 10 µM	89 to 91 °C
